Experimental data published in ChEMBL document CHEMBL1201862, “PubChem BioAssay data set” (2004).
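Method: 48-hour compound exposure of cells in 96-well plates, five concentrations, linear interpolation of endpoints. At the GI50, growth is halved.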 Active and inactive are the calls of the source. Cut-off read from the data, not from the text of the source: active = GI50 up to about 1.1 µM and inactive = higher. Where a SMILES comes first, the peptide text is derived from it. The star is where a group is joined. Boc = CC(C)(C)OC(=O)*

What was measured:
Assay in all cases: growth of human tumour cells (NCI), 48 h
HCT-116 = test system: HCT-116
UACC-257 = test system: UACC-257
M14 = test system: M14
SW-620 = test system: SW-620
HCC 2998 = test system: HCC 2998
HCT-15 = test system: HCT-15
OVCAR-4 = test system: OVCAR-4
MDA-MB-231 = test system: MDA-MB-231
MCF7 = test system: MCF7
SK-OV-3 = test system: SK-OV-3
MDA-MB-435 = test system: MDA-MB-435
SNB-75 = test system: SNB-75
BT-549 = test system: BT-549
SF-539 = test system: SF-539
RPMI-8226 = test system: RPMI-8226
SR = test system: SR
SF-268 = test system: SF-268
MDA-N = test system: MDA-N
A498 = test system: A498

SMILES | GI50 (HCT-116) | GI50 (UACC-257) | GI50 (M14) | GI50 (SW-620) | GI50 (HCC 2998) | GI50 (HCT-15) | GI50 (OVCAR-4) | GI50 (MDA-MB-231) | GI50 (MCF7) | GI50 (SK-OV-3) | GI50 (MDA-MB-435) | GI50 (SNB-75) | GI50 (BT-549) | GI50 (SF-539) | GI50 (RPMI-8226) | GI50 (SR) | GI50 (SF-268) | GI50 (MDA-N) | GI50 (A498)
CC1=CC(=O)/C(=C/Nc2nc(-c3cccc([N+](=O)[O-])c3)cs2)C(=O)O1 | 37.7 µM (inactive) | > 100 µM (inactive) | 64.1 µM (inactive) | 43.4 µM (inactive) | 31.9 µM (inactive) | 23 µM | > 100 µM (inactive) | 57.4 µM (inactive) | 41.6 µM (inactive) | > 100 µM (inactive) | 75.2 µM (inactive) | 35.9 µM (inactive) | 21.9 µM (inactive) | 69 µM (inactive) |  |  |  |  | 
CCSc1n/c(=C\c2ccco2)c2nncn12 | > 100 µM (inactive) |  | > 100 µM (inactive) | > 100 µM (inactive) |  | > 100 µM |  | > 100 µM (inactive) | > 100 µM (inactive) | > 100 µM (inactive) | > 100 µM (inactive) | > 100 µM (inactive) |  |  | > 100 µM (inactive) | > 100 µM (inactive) | > 100 µM (inactive) | > 100 µM (inactive) | 
COC(=O)c1c2n(c3ccccc13)C[C@H]1OC(C)(C)O[C@@H]21 | > 100 µM (inactive) | > 100 µM (inactive) | > 100 µM (inactive) | > 100 µM (inactive) | > 100 µM (inactive) | > 100 µM | > 100 µM (inactive) | > 100 µM (inactive) | > 100 µM (inactive) | > 100 µM (inactive) | > 100 µM (inactive) | > 100 µM (inactive) | > 100 µM (inactive) | > 100 µM (inactive) | > 100 µM (inactive) | > 100 µM (inactive) | > 100 µM (inactive) |  | > 100 µM (inactive)
CSc1ccc(NC(=O)CCl)cc1 | 3.03 µM (inactive) | 6.18 µM (inactive) | 1.92 µM (inactive) | 8.32 µM (inactive) | 2.18 µM (inactive) | 5.97 µM | > 10 µM (inactive) | 7.31 µM (inactive) | 3.51 µM (inactive) | > 10 µM (inactive) | 4.03 µM (inactive) | 2.53 µM (inactive) |  | 3.95 µM (inactive) | 3.32 µM (inactive) | 2.7 µM (inactive) | > 10 µM (inactive) | 4.84 µM (inactive) | 
CCCn1c(C23CC4CC(CC(C4)C2)C3)nc2ccc(Cl)cc2c1=O | 30.1 µM (inactive) | 33.2 µM (inactive) | 26.1 µM (inactive) | > 100 µM (inactive) |  | 45.6 µM | 42.2 µM (inactive) | > 100 µM (inactive) | 23.7 µM (inactive) | 49.5 µM (inactive) | 36.6 µM (inactive) |  | 44.2 µM (inactive) | > 100 µM (inactive) | 28.7 µM (inactive) |  | > 100 µM (inactive) | 33 µM (inactive) | 17.9 µM (inactive)
CCC(C)(C)/C(CC(O)(C(F)(F)F)C(F)(F)F)=N\O | > 100 µM (inactive) |  | > 100 µM (inactive) | > 100 µM (inactive) | > 100 µM (inactive) | > 100 µM | > 100 µM (inactive) | > 100 µM (inactive) |  | > 100 µM (inactive) | > 100 µM (inactive) | > 100 µM (inactive) |  | > 100 µM (inactive) | > 100 µM (inactive) | > 100 µM (inactive) | > 100 µM (inactive) | > 100 µM (inactive) | > 100 µM (inactive)
CC1=CCC(C(C)(C)NC(=O)c2ccccc2)C/C1=N/O (configuration not stated) | > 100 µM (inactive) | > 100 µM (inactive) | > 100 µM (inactive) | > 100 µM (inactive) | > 100 µM (inactive) | > 100 µM | > 100 µM (inactive) | > 100 µM (inactive) | > 100 µM (inactive) | > 100 µM (inactive) | > 100 µM (inactive) | > 100 µM (inactive) | > 100 µM (inactive) | > 100 µM (inactive) |  |  | > 100 µM (inactive) | > 100 µM (inactive) | 
O=c1oc(-c2ccc(O)cc2)cc2cc(O)ccc12 | 21.2 µM (inactive) | 52 µM (inactive) | 24.2 µM (inactive) | 25.7 µM (inactive) | 23.1 µM (inactive) | 43.2 µM | 32.7 µM (inactive) |  | 20.6 µM (inactive) | 26.3 µM (inactive) | 27.4 µM (inactive) | 31.6 µM (inactive) | 23 µM (inactive) | 32.2 µM (inactive) | 48.8 µM (inactive) |  | 26.5 µM (inactive) |  | 14.7 µM (inactive)
CC(=O)[C@]12OC(=O)C3=C1[C@H](CC[C@@H]3C)[C@@H](C)C[C@H]2C=C(C)C | 6.55 µM (inactive) | 9.75 µM (inactive) | 8.39 µM (inactive) | 7.55 µM (inactive) |  | 7.96 µM |  | 8.2 µM (inactive) | 8.85 µM (inactive) | 11 µM (inactive) | 7.93 µM (inactive) |  |  | 9.14 µM (inactive) | 7.26 µM (inactive) | 7.87 µM (inactive) | 8.47 µM (inactive) | 7.59 µM (inactive) | 7.96 µM (inactive)
C=Cc1c(C)c(OC)cc2c1Oc1ccc(OC)c(C)c1CC2 | > 100 µM (inactive) | 43.5 µM (inactive) | > 100 µM (inactive) | > 100 µM (inactive) | > 100 µM (inactive) | > 100 µM | > 100 µM (inactive) | > 100 µM (inactive) | > 100 µM (inactive) | > 100 µM (inactive) | 76 µM (inactive) | 84.3 µM (inactive) |  | > 100 µM (inactive) | > 100 µM (inactive) | > 100 µM (inactive) | > 100 µM (inactive) | > 100 µM (inactive) | > 100 µM (inactive)
Cn1ccc(C(=O)NCCN(CCNC(=O)c2ccn(C)c(=O)c2O)CCNC(=O)c2cccc(=O)n2O)c(O)c1=O | > 100 µM (inactive) | > 100 µM (inactive) | > 100 µM (inactive) | > 100 µM (inactive) | > 100 µM (inactive) | > 100 µM | > 100 µM (inactive) | > 100 µM (inactive) | > 100 µM (inactive) | > 100 µM (inactive) | > 100 µM (inactive) | > 100 µM (inactive) | > 100 µM (inactive) | > 100 µM (inactive) | > 100 µM (inactive) | > 100 µM (inactive) | > 100 µM (inactive) |  | > 100 µM (inactive)
N/C(=N\O)NCCN1CCCCCCC1 | 12.1 µM (inactive) | > 100 µM (inactive) | > 100 µM (inactive) | > 100 µM (inactive) | > 100 µM (inactive) | > 100 µM | > 100 µM (inactive) | > 100 µM (inactive) | 26.5 µM (inactive) | > 100 µM (inactive) | > 100 µM (inactive) | > 100 µM (inactive) |  | > 100 µM (inactive) | > 100 µM (inactive) | > 100 µM (inactive) | > 100 µM (inactive) | > 100 µM (inactive) | > 100 µM (inactive)
COc1cccc(C2c3cc4c(cc3OC(N3CCCC3)C2C)OCO4)c1OC (configuration not stated) | 1.64 µM (inactive) | 1.72 µM (inactive) | 9.08 µM (inactive) | 1.65 µM (inactive) |  | 2.25 µM |  |  | 4.58 µM (inactive) |  | 4.06 µM (inactive) |  |  | 3.33 µM (inactive) | 3.61 µM (inactive) | 3.03 µM (inactive) | 2.89 µM (inactive) | 4.76 µM (inactive) | 
C1CCCCC2(CCCCCCCCC3(CCC1)SCCS3)SCCS2 | > 100 µM (inactive) | > 100 µM (inactive) | > 100 µM (inactive) | > 100 µM (inactive) | > 100 µM (inactive) | > 100 µM | > 100 µM (inactive) |  | > 100 µM (inactive) | > 100 µM (inactive) | > 100 µM (inactive) | > 100 µM (inactive) |  | > 100 µM (inactive) |  | > 100 µM (inactive) | > 100 µM (inactive) | > 100 µM (inactive) | > 100 µM (inactive)
COC(=O)[C@]1(c2cc3ccccc3n2S(=O)(=O)c2ccccc2)CC2CN(C(=O)OCc3ccccc3)C1C1OC(C)(C)OC21 (some centres not stated) | > 100 µM (inactive) | > 100 µM (inactive) | 80.5 µM (inactive) | > 100 µM (inactive) | > 100 µM (inactive) | > 100 µM | > 100 µM (inactive) | > 100 µM (inactive) | > 100 µM (inactive) | > 100 µM (inactive) | > 100 µM (inactive) | 80.4 µM (inactive) | > 100 µM (inactive) |  | 60.1 µM (inactive) |  |  | > 100 µM (inactive) | 
Nc1nc(-c2ccccc2)nc2c1[n+]([O-])c1ccccc1[n+]2[O-] | > 100 µM (inactive) | > 100 µM (inactive) | > 100 µM (inactive) | > 100 µM (inactive) | > 100 µM (inactive) | > 100 µM |  | > 100 µM (inactive) | > 100 µM (inactive) | > 100 µM (inactive) | > 100 µM (inactive) |  | > 100 µM (inactive) | > 100 µM (inactive) | > 100 µM (inactive) |  | > 100 µM (inactive) |  | > 100 µM (inactive)
CC(NC(=O)C(NC(=O)OC(C)(C)C)C(C)C)C(=O)NCC(=O)O (stereo not drawn) (Boc-Val-Ala-Gly-OH; configuration not given here) | > 100 µM (inactive) | > 100 µM (inactive) | > 100 µM (inactive) | > 100 µM (inactive) | > 100 µM (inactive) | > 100 µM |  |  |  | > 100 µM (inactive) | > 100 µM (inactive) |  | > 100 µM (inactive) | > 100 µM (inactive) | > 100 µM (inactive) | > 100 µM (inactive) | > 100 µM (inactive) | > 100 µM (inactive) | 
